Source: patent US20150051210A1, “Tyrosine Kinase Inhibitor Combinations and their Use” (Novartis AG, priority 2012, published 2015)

Assays:
[1] = tested on: phosphorylation of MET, ERK1/2, AKT, FRS2 in MKN-45; experiment: Western blots of protein phosphorylation in MKN-45 cells; format: cell-based
Method: Western Blots (Figures not Shown) MKN-45 and RT-112 cells were treated in 6-well plates for 2 hours and 18 hours in the presence or absence of purified protein (rhFGF7, rhNRG1-31, or rhHGF), and/or inhibitor (Cpd. B, Cpd. A, BGJ398). Following wash with ice-cold PBS, cells were lysed with RIPA buffer (Thermo) containing phosphatase (Thermo) and proteinase (Roche) inhibitor cocktails. Total protein was quantified by bicinchoninic protein assay (Pierce). Aliquots of 20 μg were resolved by electrophoresis on NuPAGE SDS-PAGE 4-12% BIS-Tris gels before transfer to nitrocellulose membranes. Membranes were blocked for one hour at room temperature before overnight incubation at 4° C. with the following primary antibodies (source rabbit, 1:1000 final dilution): anti-phospho-Akt (Ser473), anti-phospho-MET (Tyr1234/1235), anti-phospho-MAPK/ERK(1/2) (Thr202/Tyr204), anti-AKT, anti-MAPK/Erk(1/2), and anti-α/β-Tubulin . Anti-MET was probed at 1:800 final dilution An internal antibody was used for phospho-FRS2(Y346) (1:1500 dilution). Membranes were then washed 3 times in PBS+0.1% Tween before addition of secondary antibody, IRDye 680LT goat anti-rabbit IgG , dilution 1:15000. After one hour at room temperature, membranes were washed and bands were visualized using an Odyssey Infrared Imager.

[2] = tested on: MG-63 cells; experiment: Combination assay (concentration matrix, resazurin, Loewe synergy) in MG-63; format: cell-based; conditions: MG-63, semi-solid media
Method: Combinatorial anti-proliferative effects of Cpd. B (“B) in the tables below) and BGJ398 (“C” in the tables below) were measured in KYM-1, MG-63, and Hs-683 cells on 96-well-plates using the concentration matrix depicted below:
Cells were grown under three different conditions (see FIG. 7): Experiments labeled “monolayer” were conducted on regular tissue culture plates, allowing cells to adhere and eventually form a monolayer. Cells were seeded on 3 plates per experiment (triplicates) in standard growth media as described above at a density of 5000 per well. Six to eight wells on a separate plate were seeded to quantify the amount of viable cells at the point of compound addition. […] At the same time, viable cells on the separate plate mentioned above were quantified using a resazurin sodium salt dye reduction readout. […] Quantification of Synergy was done using the methods described in G. R. Zimmermann et al., Drug Discovery Today, Vol. 12, No. ½, 2007, pages 34 to 42, and especially J. Lehár et al., Nature Biotechnology Vol. 27, No. 7, 2009, pages 659 to 666, in short by iteratively calculating the Loewe additive response ILoewe (X, Y) at each dose matrix point from the single-agent response curves, and then summing the differences between ILoewe and the experimental data. […]

[3] = tested on: patient-derived non-small cell lung cancer xenograft LXFL 1121; experiment: In vivo anti-tumor efficacy study in xenograft LXFL 1121; conditions: for anti-tumor effect compared to vehicle control / Δ tumor volume: Cpd. B 10 mg/kg bid/qd; for anti-tumor effect compared to vehicle control: BGJ398 40 mg/kg qd orally, 18 days; for Δ tumor volume: end values, BGJ398 40 mg/kg qd, control C 309.6
Method: The in vivo anti-tumor efficacy study in the patient-derived non-small cell lung cancer xenograft LXFL 1121 was carried out. Xenografts were grown subcutaneously in nude mice. Eight tumor-bearing mice each were treated with either vehicle control, Cpd. B alone, BGJ398 alone or both drugs in combination at the doses and frequencies indicated. Note that frequency of Cpd. […] Tumor volumes were measured on the indicated days and synergy of the combination treatment was assessed by the method of Clarke, R., Breast Cancer Res. Treat., […].
Mice bearing xenografts derived from this model were randomized to 4 groups that were then treated with a vehicle control, Cpd. B as single agent, BGJ398 as single agent or a combination of both drugs. Cpd. B was commenced at a dose of 10 mg/kg twice daily. BGJ398 was given orally at a dose of 40 mg/kg once daily, and the same regimen for both drugs was used in combination. […] The study was continued in this setup until day 18.
The significance of combination data was assessed using the method presented by Clark (2), which can estimate interactions from limited data. For compound A, B or the combination AB (with control group C), the end values are collected. Antagonism is predicted when the calculation AB/C>A/C×B/C, additive AB/C=A/C×B/C, synergistic interactions are predicted to occur when […].

[4] = Δ tumor volume relative to control group C

Compound | reversal of FGF7 rescue effect on FRS2 and ERK1/2 phosphorylation ([1]; MKN-45, MET inhibitor plus FGF7) | growth inhibition [2] | anti-tumor effect compared to vehicle control [3] | Δ tumor volume [3] | B/C [3, 4] | effect on phosphorylation of several proteins (MET, ERK1/2, AKT, FRS2) ([1]; MKN-45, absence of added ligands) | A/C [3, 4]
CCN1CCN(c2ccc(Nc3cc(N(C)C(=O)Nc4c(Cl)c(OC)cc(OC)c4Cl)ncn3)cc2)CC1 [BGJ398, 3-(2,6-dichloro-3,5-dimethoxy-phenyl)-1-{6-[4-(4-ethylpiperazin-1-yl)-phenylamino]-pyrimidin-4-yl}-1-methyl-urea] | reversed | strong growth inhibition | strong tumor growth inhibition resulting in stable disease | −16.6 | −0.054 | – | –
CNC(=O)c1ccc(-c2cnc3ncc(Cc4ccc5ncccc5c4)n3n2)cc1F [Cpd. B, 2-fluoro-N-methyl-4-[(7-quinolin-6-yl-methyl)-imidazo[1,2-b]triazin-2-yl]benzamide] | – | – | very modest, statistically not significant anti-tumor effect | 333.6 | – | profound effect | 1.078
